According to patent US12521393B2, “Cytotoxicity targeting chimeras for CCR2-expressing cells” (GLAXOSMITHKLINE INTELLECTUAL PROPERTY DEVELOPMENT LIMITED, priority 2021, dated 2026):

Test system: endogenous target monocytes in human PBMC
Experiment: PBMC ex vivo monocyte depletion flow cytometry assay (Example 200)
Format: cell-based
Settings: with anti-cotinine antibody (SEQ ID NO: 11/12), 18-24 hours, EC50 in molar, read-out: Ex Vivo Depletion Assay pEC50 (converted)
Procedure: A human PBMC (peripheral blood mononuclear cells) monocyte depletion flow cytometry assay was developed to screen compounds in a 384-well plate format. This assay incorporated endogenous natural killer cells to deplete endogenous target monocytes.
To screen compounds in the human PBMC monocyte depletion flow cytometry assay, 11-point dose-response curves were made from 1 mM stocks in neat DMSO by serially diluting an ARM compound of Formula (I) four-fold into a 384-well plate row-wise. These serially diluted compounds were then stamped into a flat bottom polypropylene 384-well plate (Greiner Bio-One) at 100 nL/well. Fifty microliters of 30 μg/mL anti-cotinine antibody having a heavy chain sequence of SEQ ID NO: 11 and a light chain sequence of SEQ ID NO: 12 (rabbit variable region with human IgG1 Fc domain containing a DE mutation (S239D/1332E)) that had been diluted in assay medium (RPMI 1640 (Gibco) containing 10% fetal bovine serum (Gibco), 1% Glutamax (Gibco) and 1% sodium pyruvate (Corning) was added to the wells of the plate. The plate was centrifuged for 1 min at 500 rpm (revolutions per minute) and then shaken for 5 min at room temperature. The plate was incubated for 15 minutes at 37° C./5% CO2.
Frozen PBMC cells (HemaCare BioResearch) were thawed and centrifuged at 1,200 rpm for 4 minutes. The cells were diluted to a cell density of 2×10^6 cells/mL in assay medium. Fifty microliters of the diluted cells were added to the wells of the plate. The plate was centrifuged for 1 min at 500 rpm and incubated for 18-24 hours at 37° C./5% CO2.
After 18-24 hours incubation, 2 μL of 6.25 μg human FC block (BD Pharmingen) that was diluted in assay medium was added to the wells of the plate. The plate was centrifuged for 1 minute at 500 rpm and then incubated at room temperature for 15 minutes. Five microliters of 750 nM Helix NP NIR (Biolegend) that had been diluted in assay medium was added to the wells of the plate. Nine microliters of antibody cocktail containing 1/5 diluted fluorescein isothiocyanate (FITC) labeled anti-CD45 antibody (Beckman Coulter), PC7 labeled anti-CD14 antibody (Beckman Coulter) and phyocoerythrin (PE) anti-CD4 antibody (Beckman Coulter) was then added to the wells of the plate. The plate was centrifuged for 1 min at 500 rpm and incubated for 30 minutes at 4-8° C. Samples from the plate were run on BD FACS Canto II flow cytometer and data was analyzed using FlowJo software.
ARMs compounds of Formula (I) of the invention were tested for the ability to deplete monocytes in the above assay in one or more experimental runs and the results are shown in Table 3 below. Potency of the compounds of the invention is reported as a pEC50 value. The pEC50 value is the negative log of the EC50 value, wherein the EC50 value is the half maximal effective concentration measured in molar (M). For compounds tested in more than one experimental run, the pEC50 value is reported as an average or as the individual values measured

Row | SMILES | EC50 [nM]
1 | CC(C)N(C)[C@@H]1CC[C@H](N2CC[C@H](Nc3ncnc4ccc(C(F)(F)F)cc34)C2=O)[C@H](NC(=O)CCCNC(=O)CCCC(=O)NCCCOCCCNC(=O)C2CC(=O)N(C)C2c2cccnc2)C1 (stereo in doubt) [Example 21, N1-(4-(((1R,2S,5R)-5-(Isopropyl(methyl)amino)-2-((S)-2-oxo-3-((6-(trifluoromethyl)quinazolin-4-yl)amino)pyrrolidin-1-yl)cyclohexyl)amino)-4-oxobutyl)-N5-(3-(3-((2S,3S)-1-methyl-5-oxo-2-(pyridin-3-yl)pyrrolidine-3-carboxamido)propoxy)propyl)glutaramide] | 0.631
2 | CC(C)N(C)[C@@H]1CC[C@H](N2CC[C@H](Nc3ncnc4ccc(C(F)(F)F)cc34)C2=O)[C@H](NC(=O)C23CCC(NC(=O)CCOCCOCCOCCNC(=O)[C@H]4CC(=O)N(C)[C@@H]4c4cccnc4)(CC2)CC3)C1 [Example 25, (2S,3S)-N-(2-(2-(2-(3-((4-(((1R,2S,5R)-5-(Isopropyl(methyl)amino)-2-((S)-2-oxo-3-((6-(trifluoromethyl)quinazolin-4-yl)amino)pyrrolidin-1-yl)cyclohexyl)carbamoyl)bicyclo[2.2.2]octan-1-yl)amino)-3-oxopropoxy)ethoxy)ethoxy)ethyl)-1-methyl-5-oxo-2-(pyridin-3-yl)pyrrolidine-3-carboxamide] | 2
3 | CC(C)N(C)[C@@H]1CC[C@H](N2CC[C@H](Nc3ncnc4ccc(C(F)(F)F)cc34)C2=O)[C@H](NC(=O)[C@H]2C[C@H](NC(=O)CCOCCNC(=O)CCOCCNC(=O)[C@@H]3CC(=O)N(C)[C@H]3c3cccnc3)C2)C1 [Example 45, (2S,3S)-N-(2-(3-((2-(3-(((1R,3r)-3-(((1R,2S,5R)-5-(Isopropyl(methyl)amino)-2-((S)-2-oxo-3-((6-(trifluoromethyl)quinazolin-4-yl)amino)pyrrolidin-1-yl)cyclohexyl)carbamoyl)cyclobutyl)amino)-3-oxopropoxy)ethyl)amino)-3-ixopropoxy)ethyl)-1-methyl-5-oxo-2-(pyridin-3-yl)pyrrolidine-3-carboxamide] | 2
4 | CC(C)N(C)[C@@H]1CC[C@H](N2CC[C@H](Nc3ncnc4ccc(C(F)(F)F)cc34)C2=O)[C@H](NC(=O)CCCOC[C@H]2CC[C@H](COCCNC(=O)[C@H]3CC(=O)N(C)[C@@H]3c3cccnc3)CC2)C1 [Example 58, (2S,3S)-N-(2-(((1R,4S)-4-((4-(((1R,2S,5R)-5-(Isopropyl(methyl)amino)-2-((S)-2-oxo-3-((6-(trifluoromethyl)quinazolin-4-yl)amino)pyrrolidin-1-yl)cyclohexyl)amino)-4-oxobutoxy)methyl)cyclohexyl)methoxy)ethyl)-1-methyl-5-oxo-2-(pyridin-3-yl)pyrrolidine-3-carboxamide] | 7.94
5 | CC(C)N(C)[C@@H]1CC[C@H](N2CC[C@H](Nc3ncnc4ccc(C(F)(F)F)cc34)C2=O)[C@H](NC(=O)CCCOCC23CCC(COCCNC(=O)[C@H]4CC(=O)N(C)[C@@H]4c4cccnc4)(CC2)CC3)C1 [Example 59] | 1.58
6 | CC(C)N(C)[C@@H]1CC[C@H](N2CC[C@H](Nc3ncnc4ccc(C(F)(F)F)cc34)C2=O)[C@H](NC2CCC(C(=O)NCCOCCOCCNC(=O)[C@H]3CC(=O)N(C)[C@@H]3c3cccnc3)CC2)C1 (stereo partly drawn) [Example 68, (2S,3S)-N-(2-(2-(2-(4-(((1R,2S,5R)-5-(Isopropyl(methyl)amino)-2-((S)-2-oxo-3-((6-(trifluoromethyl)quinazolin-4-yl)amino)pyrrolidin-1-yl)cyclohexyl)amino)cyclohexane-1-carboxamido)ethoxy)ethoxy)ethyl)-1-methyl-5-oxo-2-(pyridin-3-yl)pyrrolidine-3-carboxamide] | 100000
7 | CC(C)N(C)[C@@H]1CC[C@H](N2CC[C@H](Nc3ncnc4ccc(C(F)(F)F)cc34)C2=O)[C@H](NC(=O)COCCNC(=O)CNC(=O)COCCOCCNC(=O)[C@H]2CC(=O)N(C)[C@@H]2c2cccnc2)C1 [Example 78, (2S,3S)-N-(1-(((1R,2S,5R)-5-(Isopropyl(methyl)amino)-2-((S)-2-oxo-3-((6-(trifluoromethyl)quinazolin-4-yl)amino)pyrrolidin-1-yl)cyclohexyl)amino)-1,7,10-trioxo-3,12,15-trioxa-6,9-diazaheptadecan-17-yl)-1-methyl-5-oxo-2-(pyridin-3-yl)pyrrolidine-3-carboxamide] | 2.51
8 | CC(C)N(C)[C@@H]1CC[C@H](N2CC[C@H](Nc3ncnc4ccc(C(F)(F)F)cc34)C2=O)[C@H](NC(=O)COCC(=O)N2CCN(C(=O)N3CCN(C(=O)COCCNC(=O)[C@H]4CC(=O)N(C)[C@@H]4c4cccnc4)CC3)CC2)C1 [Example 84, (2S,3S)-N-(2-(2-(4-(4-(2-(2-(((1R,2S,5R)-5-(isopropyl(methyl)amino)-2-((S)-2-oxo-3-((6-(trifluoromethyl)quinazolin-4-yl)amino)pyrrolidin-1-yl)cyclohexyl)amino)-2-oxoethoxy)acetyl)piperazine-1-carbonyl)piperazin-1-yl)-2-oxoethoxy)ethyl)-1-methyl-5-oxo-2-(pyridin-3-yl)pyrrolidine-3-carboxamide] | 1
9 | CC(C)N(C)[C@@H]1CC[C@H](N2CC[C@H](Nc3ncnc4ccc(C(F)(F)F)cc34)C2=O)[C@H](NC(=O)C2CCN(C3CCN(C(=O)CCCCCNC(=O)[C@H]4CC(=O)N(C)[C@@H]4c4cccnc4)CC3)CC2)C1 [Example 87, N-((1R,2S,5R)-5-(Isopropyl(methyl)amino)-2-((S)-2-oxo-3-((6-(trifluoromethyl)quinazolin-4-yl)amino)pyrrolidin-1-yl)cyclohexyl)-1'-(6-((2S,3S)-1-methyl-5-oxo-2-(pyridin-3-yl)pyrrolidine-3-carboxamido)hexanoyl)-[1,4'-bipiperidine]-4-carboxamide] | 0.398
10 | CC(C)N(C)[C@@H]1CC[C@H](N2CC[C@H](Nc3ncnc4ccc(C(F)(F)F)cc34)C2=O)[C@H](NC(=O)c2cc(OCCOCCOCCOCCOCCNC(=O)[C@H]3CC(=O)N(C)[C@@H]3c3cccnc3)ccn2)C1 [Example 88, N-((1R,2S,5R)-5-(Isopropyl(methyl)amino)-2-((S)-2-oxo-3-((6-(trifluoromethyl)quinazolin-4-yl)amino)pyrrolidin-1-yl)cyclohexyl)-4-((1-((2S,3S)-1-methyl-5-oxo-2-(pyridin-3-yl)pyrrolidin-3-yl)-1-oxo-5,8,11,14-tetraoxa-2-azahexadecan-16-yl)oxy)picolinamide] | 7.94
11 | CC(C)N(C)[C@@H]1CC[C@H](N2CC[C@H](Nc3ncnc4ccc(C(F)(F)F)cc34)C2=O)[C@H](NC(=O)c2cc(OCCOCCOCCOCCNC(=O)[C@H]3CC(=O)N(C)[C@@H]3c3cccnc3)ccn2)C1 [Example 89, N-((1R,2S,5R)-5-(Isopropyl(methyl)amino)-2-((S)-2-oxo-3-((6-(trifluoromethyl)quinazolin-4-yl)amino)pyrrolidin-1-yl)cyclohexyl)-4-((1-((2S,3S)-1-methyl-5-oxo-2-(pyridin-3-yl)pyrrolidin-3-yl)-1-oxo-5,8,11-trioxa-2-azatridecan-13-yl)oxy)picolinamide] | 25.1
12 | CC(C)N(C)[C@@H]1CC[C@H](N2CC[C@H](Nc3ncnc4ccc(C(F)(F)F)cc34)C2=O)[C@H](NC(=O)c2ccc(OC3CCN(CCOCCOCCNC(=O)[C@H]4CC(=O)N(C)[C@@H]4c4cccnc4)CC3)cc2)C1 [Example 91] | 0.794
13 | CC(C)N(C)[C@@H]1CC[C@H](N2CC[C@H](Nc3ncnc4ccc(C(F)(F)F)cc34)C2=O)[C@H](NC(=O)c2cnn(C3CCN(CCOCCOCCNC(=O)[C@H]4CC(=O)N(C)[C@@H]4c4cccnc4)CC3)c2)C1 [Example 92, N-((1R,2S,5R)-5-(Isopropyl(methyl)amino)-2-((S)-2-oxo-3-((6-(trifluoromethyl)quinazolin-4-yl)amino)pyrrolidin-1-yl)cyclohexyl)-1-(1-(2-(2-(2-((2S,3S)-1-methyl-5-oxo-2-(pyridin-3-yl)pyrrolidine-3-carboxamido)ethoxy)ethoxy)ethyl)piperidin-4-yl)-1H-pyrazole-4-carboxamide] | 25.1
